According to publication PMC11565046, “Rational design of 2H-chromene-based antiphytovirals that inhibit virion assembly by outcompeting virus capsid-RNA interactions” (iScience, 2024):
Like-named read-outs stand apart in the source and are kept apart here.

Columns and labels:
PVY [1] = assay: Inactivating activity against PVY, half-leaf method on Chenopodium amaranticolor; format: in vivo, potato virus Y; conditions: for EC50: Potato virus Y, in Chenopodium amaranticolor
Procedure: (§1) According to previous reports,[46] PVY was infested in Nicotiana tabacum K326, and PVY was harvested and purified after showing severe infection symptoms on the leaves. The literature-guided protocol was followed to assess the curative, prophylactic, and […] potential of the target compounds under investigation.[15]
Target compound solution (1,000 μg/mL) and 2 × virus solution were combined in equal quantities and incubated for 30 min. Evenly distribute emery onto the leaf blades, and apply the mixture of virus and compound solution onto the right side of C. amaranticolor leaf blades. Following this, an identical quantity of a 1× virus solution was applied to the untreated side of the leaf. Following a duration of 1.5 h, the emery residue present on the leaf surface was removed using a rinsing process utilizing water. The plants were incubated within a controlled greenhouse environment, maintaining a consistent temperature of 25°C. After 5−7 days, they proceeded to statistics the number of necrotic spots on the leaves. For each chemical, triplicate experiments were undertaken, and the average percentage of inhibition was subsequently determined.

PVY [2] = assay: Curative activity against PVY, half-leaf method on Chenopodium amaranticolor; format: in vivo; conditions: Potato virus Y, in Chenopodium amaranticolor; 500 μg/mL; Chenopodium amaranticolor leaves; average of three replicates
Source text: as §1
To assess the curative effectiveness against PVY, a uniform layer of 200–300 mesh emery was applied to the leaves of C. amaranticolor, followed by rubbing with a virus solution. For 1.5 h, then the emery was washed off with water. After the leaves naturally dried, a 500 μg/mL solution of the test compound was carefully applied to one side of the leaf, while the opposite side received a 1% Tween 80 solution as a control. The plants were subsequently incubated in a greenhouse maintained at 25°C. After 5−7 days, the presence of necrotic spots on the leaves was recorded, with each compound tested on three replicate plants. The average inhibition rate was determined by analyzing the data from these replications.

PVY [3] = assay: Protective activity against PVY, half-leaf method on Chenopodium amaranticolor; format: in vivo; conditions: Potato virus Y, in Chenopodium amaranticolor; 500 μg/mL; Chenopodium amaranticolor leaves; average of three replicates
Procedure: as §1
A 500 μg/mL solution of the targeted compound was delicately applied to one side of C. amaranticolor leaves, while the other side was treated with a 1% Tween 80 aqueous solution. The plants were positioned in a greenhouse set at 25°C. Following a 24 h period, the entire leaf surface was inoculated with PVY by uniformly distributing 200–300 mesh emery. After 1.5 h, the emery was washed off with water, and the plants were returned to the greenhouse. After 5–7 days, the number of necrotic spots was tallied, with the assessment based on the greenhouse population. Each compound was tested in triplicate, and the average inhibition rate was subsequently calculated.

PVY-GFP = assay: Systemic infection of PVY-GFP in Nicotiana benthamiana (UV fluorescence, RT-qPCR); format: in vivo, potato virus Y; conditions: 500 μg/mL spray, 7 dpai; for Green fluorescence under UV light: N. benthamiana, versus DMSO control; for PVY RNA accumulation level (control normalized as 100%): systemic leaves of N. benthamiana, RT-qPCR
Source text: To evaluate the effect of C50 on PVY infection, we infiltrated the Nicotiana benthamiana plants with Agrobacterium carrying the PVY infectious clone pCamPVY-GFP. […] The RT-qPCR results for GFP were consistent with that of PVY RNA (Figure 3D).
The Nicotiana benthamiana plants were subjected to infestation by Agrobacterium tumefaciens, which carried either pCamPVY-GFP or an empty vector (mock). […] At 7 dpai, the leaves of N. benthamiana were looked at for the GFP using a LUYOR UV light (Shanghai, China), and captured in photographs. The foliage was gathered, rapidly frozen with liquid nitrogen, and subsequently preserved in a refrigerator set at a temperature of −80°C.
Leaf blades of Nicotiana benthamiana were pulverized into fine powder with the aid of liquid nitrogen, followed by the extraction of total RNA from the leaf tissue utilizing Trizol reagent (Invitrogen, California, USA). Subsequently, cDNA synthesis was conducted through reverse transcription with primers and a reverse transcription kit (Vazyme, Nanjing, China). Any potential DNA contamination was effectively removed using a gDNA wipe enzyme (Vazyme, Nanjing, China) as per the manufacturer’s guidelines. RT-qPCR analysis was carried out employing TB Green (TaKaRa, Beijing, China). Detailed information regarding the primers utilized in this investigation can be found in Table S2.

PVY CP^wt = PVY CP^wt (Potato virus Y, UniProt A0A650FPI8); assay: MST assay for affinity with PVY CP^wt; format: binding
Source text: Microscale thermophoresis (MST) serves as a potent technique for quantifying the strength of interactions occurring between small molecules and their respective ligands.[19]^,[20] The binding strength between specific target drugs and PVY CP^wt was investigated in vitro using MST, as depicted in Figures 5G and S3. This experimental approach aimed to acquire insights into how target compounds exert their influences against PVY. […] Similarly, the affinity of target compounds for interacting with PVY CP^S125A was tested.
The PVY CP^wt gene, the wild-type variant of the Potato Virus Y coat protein, was cloned into the pET-32a (+) prokaryotic expression vector. This recombinant vector was then thermally transformed into BL21 (DE3) bacterial host cells for subsequent protein expression. The strains above were cultivated on a liquid Luria-Bertani medium (180 rpm, 37°C). To initiate the expression of PVY CP, isopropyl β-D-1-thiogalactopyranoside (IPTG) was added to the culture medium at a concentration of […] when the optical density at 600 nm (OD600) reached a range between 0.6 and 0.8. This step triggered the production of the PVY CP protein. The induction process was maintained for 10 h (180 rpm, 16°C). The 6 × -His-S-tagged PVY CP^wt were purified using nickel-nitriloacetic acid by high-performance column affinity chromatography. Subsequently, enterokinase was employed to digest the proteins, and the desired target proteins were isolated using His-tag purification resin. Ultimately, the proteins were identified through the employment of a 12% sodium dodecyl sulfate-polyacrylamide gel electrophoresis method. The pET-32a (+) plasmid containing the PVY CP^wt gene was used as a template. […] The mutant protein was purified using the method for the purification of PVY CP^wt, which was PVY CP^S125A.
The proteins' binding affinity with target chemicals was evaluated using a Monolith NT.115 instrument (Nano Temper, Munich, Germany), utilizing established methods described in literature.[35]^,[48] A concentration of 2.0 mM was selected for the chemicals, and the proteins were tagged with the Monolith TM RED-NHS second-generation labeling kit. The MST assay analyzed the fluorescence intensity of the labeled proteins, focusing on a range from 400 to 1200 to investigate their interactions. The scanning method was conducted using an “LED power” setting of 40% and a temperature that was maintained at 25.0°C.

PVY CP^S125A = target: T1, PVY CP^S125A (Potato virus Y, UniProt Q02963, S2919A); assay: MST assay for affinity with mutant PVY CP^S125A; conditions: 25.0°C, read-out: Kd for binding to PVY CP^S125A
T1 construct: 6xHis (N, cleaved yes); S-tag (N, cleaved yes); thioredoxin (Trx, from pET-32a); made in house; host or cells: E. coli BL21 (DE3)
T1 sequence (Q02963 2795-3061 S2919A): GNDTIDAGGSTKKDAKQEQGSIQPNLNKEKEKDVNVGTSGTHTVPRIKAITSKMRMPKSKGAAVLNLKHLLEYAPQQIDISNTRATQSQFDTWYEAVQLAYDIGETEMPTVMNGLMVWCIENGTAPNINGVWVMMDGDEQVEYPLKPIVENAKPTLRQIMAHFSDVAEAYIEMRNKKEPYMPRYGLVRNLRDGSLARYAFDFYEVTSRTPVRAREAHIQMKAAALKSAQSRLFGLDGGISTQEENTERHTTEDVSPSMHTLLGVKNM

[4] = Chenopodium amaranticolor leaves, read-out: EC50 for inactivating activity
[5] = inactivating activity, Table S1, read-out: Experimental pEC50 (converted)

EC50 (PVY [1]; [4])	EC50 (PVY [1]; [5])	melting point	SMILES	inhibition at 500 µg/mL (PVY [2])	inhibition at 500 µg/mL (PVY [3])	EC50 for inactivating activity (PVY [1]; Chenopodium amaranticolor leaves)	EC50 (PVY [1]; read-out: EC50 for inactivating activity, Chenopodium amaranticolor leaves)	Green fluorescence under UV light (PVY-GFP)	PVY RNA accumulation level (control normalized as 100%) (PVY-GFP)	Kd (PVY CP^wt)	Kd (PVY CP^S125A)
492 ± 13.3 µg/mL	951 µM	140 to 142 °C	CC1(C)C=Cc2c(ccc(/C=N/c3ccc(NS(=O)(=O)c4ccc(Br)s4)cc3)c2O)O1 [Compound C10]	60 to 70%	60 to 70%						
410 ± 9.7 µg/mL	851 µM	193 to 195 °C	Cc1c(Cl)cccc1S(=O)(=O)Nc1ccc(/N=C/c2ccc3c(c2O)C=CC(C)(C)O3)cc1 [Compound C38]	60 to 70%	60 to 70%						
90.3 ± 7.1 µg/mL	202 µM	152 to 154 °C	Cc1cccc(S(=O)(=O)Nc2ccc(/N=C/c3ccc4c(c3O)C=CC(C)(C)O4)cc2)c1 [Compound C27]	60 to 70%	60 to 70%						
100 ± 5.7 µg/mL	222 µM	164 to 166 °C	CC1(C)C=Cc2c(ccc(/C=N/c3ccc(NS(=O)(=O)c4cccc(F)c4)cc3)c2O)O1 [Compound C7]		60 to 70%						
88.3 ± 4 µg/mL	188 µM	191 to 193 °C	CC1(C)C=Cc2c(ccc(/C=N/c3ccc(NS(=O)(=O)c4c(F)cccc4F)cc3)c2O)O1 [Compound C32]	60 to 70%	60 to 70%						
557 ± 14.3 µg/mL	1190 µM	189 to 191 °C	CC1(C)C=Cc2c(ccc(/C=N/c3ccc(NS(=O)(=O)c4cccc(Cl)c4)cc3)c2O)O1 [Compound C36]	60 to 70%	60 to 70%						
147 ± 8.3 µg/mL	288 µM	158 to 160 °C	CC1(C)C=Cc2c(ccc(/C=N/c3ccc(NS(=O)(=O)c4ccc(Br)cc4)cc3)c2O)O1 [Compound C34]	60 to 70%	60 to 70%						
306 ± 11 µg/mL	631 µM	193 to 195 °C	CC1(C)C=Cc2c(ccc(/C=N/c3ccc(NS(=O)(=O)c4cccc(Cl)c4F)cc3)c2O)O1 [Compound C37]	60 to 70%	60 to 70%						
688 ± 17.2 µg/mL	1350 µM	161 to 163 °C	CC1(C)C=Cc2c(ccc(/C=N/c3ccc(NS(=O)(=O)c4cccc(Br)c4)cc3)c2O)O1 [Compound C16]	60 to 70%	60 to 70%						
754 ± 10.3 µg/mL	1590 µM	141 to 143 °C	CC1(C)C=Cc2c(ccc(/C=N/c3ccc(NS(=O)(=O)c4ccc(Cl)s4)cc3)c2O)O1 [Compound C24]	60 to 70%	60 to 70%						

More lines, now with the values behind:

SMILES	EC50 (PVY [1]; [4])	EC50 (PVY [1]; [5])	melting point	inhibition at 500 µg/mL (PVY [2])	inhibition at 500 µg/mL (PVY [3])	EC50 for inactivating activity (PVY [1]; Chenopodium amaranticolor leaves)	EC50 (PVY [1]; read-out: EC50 for inactivating activity, Chenopodium amaranticolor leaves)	Green fluorescence under UV light (PVY-GFP)	PVY RNA accumulation level (control normalized as 100%) (PVY-GFP)	Kd (PVY CP^wt)	Kd (PVY CP^S125A)
CC1(C)C=Cc2c(ccc(/C=N/c3ccc(NS(=O)(=O)Cc4ccccc4)cc3)c2O)O1 [Compound C28]	503 ± 12.8 µg/mL	1120 µM	143 to 145 °C	60 to 70%	60 to 70%						
CNCC(=O)N[C@@H](CO)C(=O)N[C@H]1[C@H](O)[C@@H](O)[C@H](n2ccc(N)nc2=O)O[C@@H]1C(N)=O [NNM, Ningnanmycin, reference compound]						75.7 ± 4.0 µg/mL	73.7 µg/mL	noteworthy decrease in green fluorescence	51.8%	8.6 µM	
CC1(C)C=Cc2c(ccc(/C=N/c3ccc(NS(=O)(=O)c4cc(F)cc(F)c4)cc3)c2O)O1 [Compound C26]	100 ± 4.5 µg/mL	213 µM	207 to 209 °C	60 to 70%	60 to 70%						
CC(C)=CCCC1(C)C=Cc2c(ccc(/C=N/c3ccc(NS(=O)(=O)c4ccc(C)cc4)cc3)c2O)O1 (stereo not drawn) [Compound C42]	503 ± 17 µg/mL	975 µM	95 to 97 °C							497 µM	
CCCCS(=O)(=O)Nc1ccc(/N=C/c2ccc3c(c2O)C=CC(C)(C)O3)cc1 [Compound C29]	682 ± 10 µg/mL	1650 µM	132 to 134 °C	60 to 70%	60 to 70%						
CC1(C)C=Cc2c(ccc(/C=N/c3ccc(NS(=O)(=O)c4ccc(Cl)cc4)cc3)c2O)O1 [Compound C6, (E)-4-chloro-N-(4-(((5-hydroxy-2,2-dimethyl-2H-chromen-6-yl)methylene)amino)phenyl) benzenesulfonamide]	56.7 ± 4.2 µg/mL	121 µM	139 to 141 °C							4.4 µM	312 ± 40.3 µM
Cc1ccc(S(=O)(=O)Nc2ccc(/N=C/c3ccc4c(c3O)C=CC(C)(C)O4)cc2)cc1 [Compound C50]	53.3 ± 4.3 µg/mL	119 µM	127 to 129 °C	60 to 70%	60 to 70%			noteworthy decrease in green fluorescence	18.9%	1.6 µM	125 µM
